Experimental data as given in publication PMC5161367, “Discovery of Novel Small Molecule Inhibitors of VEGF Expression in Tumor Cells Using a Cell-Based High Throughput Screening Platform” (PLoS ONE, 2016).

Assays:
[1] = Body weight in the xenograft study; assay type: in vivo, mouse; details: HT1080 xenograft study, 10 and 50 mg/kg
Method: (§1) Log phase growing tumor cells (5–10 x 10^6 cells/mouse, depending on the cell line) were implanted subcutaneously in athymic nude mice. When the average tumor size reached the indicated size, mice were randomly divided into groups and administered vehicle (5% DMSO/ 95% PEG-300) or test compounds by oral gavage. Tumor volumes were measured twice per week using digital calipers and body weights once per week. Tumor volume was determined according to the formula: L x (W)^2/2, where L is the longest dimension and W is the shortest dimension.
Body weight was measured at the indicated time for each mouse until the group average tumor size reached […] and the whole group were then took down. (DOC) Click here for additional data file.
Body weight was measured at the indicated time for each mouse until the group average tumor size reached […] and the whole group were then took down. Data in this graph represents the average body weight (g) ± SD, n = 10.

[2] = Microsome metabolism - rat; assay type: in vitro ADME
Method: (§2) Pharmacological characterization of PTC-510. Pharmacological assays were performed to characterize PTC-510, including metabolic stability in human, primate mouse and rat liver microsomes; absorption in Caco-2 cells; in vitro effect on hERG ion channel; pharmacokinetics; and acute toxicity in the rat.

[3] = Acute Toxicity Dose (ATD); assay type: in vivo
Method: as §2

[4] = biological target: Cyp1A2 (Homo sapiens, UniProt P05177); assay: p450 inhibition Cyp1A2; assay type: in vitro ADME
Cyp1A2, sequence (P05177 whole entry): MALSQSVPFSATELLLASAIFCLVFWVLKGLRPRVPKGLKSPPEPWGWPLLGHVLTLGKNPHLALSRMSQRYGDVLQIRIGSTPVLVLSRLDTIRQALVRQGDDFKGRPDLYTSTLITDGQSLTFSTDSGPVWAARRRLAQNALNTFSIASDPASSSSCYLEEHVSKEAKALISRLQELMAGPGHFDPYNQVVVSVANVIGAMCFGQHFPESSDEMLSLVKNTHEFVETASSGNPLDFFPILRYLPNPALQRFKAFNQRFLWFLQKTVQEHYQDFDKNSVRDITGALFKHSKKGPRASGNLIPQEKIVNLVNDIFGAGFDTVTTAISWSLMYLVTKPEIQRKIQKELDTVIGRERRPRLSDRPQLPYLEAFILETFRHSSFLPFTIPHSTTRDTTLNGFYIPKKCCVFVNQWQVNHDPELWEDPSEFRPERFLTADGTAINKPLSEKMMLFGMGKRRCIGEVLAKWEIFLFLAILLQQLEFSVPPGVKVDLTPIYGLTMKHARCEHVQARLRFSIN

[5] = biological target: Cyp3A4 (Homo sapiens, UniProt P08684); assay: p450 inhibition Cyp3A4; assay type: in vitro ADME
Cyp3A4, sequence (P08684 whole entry): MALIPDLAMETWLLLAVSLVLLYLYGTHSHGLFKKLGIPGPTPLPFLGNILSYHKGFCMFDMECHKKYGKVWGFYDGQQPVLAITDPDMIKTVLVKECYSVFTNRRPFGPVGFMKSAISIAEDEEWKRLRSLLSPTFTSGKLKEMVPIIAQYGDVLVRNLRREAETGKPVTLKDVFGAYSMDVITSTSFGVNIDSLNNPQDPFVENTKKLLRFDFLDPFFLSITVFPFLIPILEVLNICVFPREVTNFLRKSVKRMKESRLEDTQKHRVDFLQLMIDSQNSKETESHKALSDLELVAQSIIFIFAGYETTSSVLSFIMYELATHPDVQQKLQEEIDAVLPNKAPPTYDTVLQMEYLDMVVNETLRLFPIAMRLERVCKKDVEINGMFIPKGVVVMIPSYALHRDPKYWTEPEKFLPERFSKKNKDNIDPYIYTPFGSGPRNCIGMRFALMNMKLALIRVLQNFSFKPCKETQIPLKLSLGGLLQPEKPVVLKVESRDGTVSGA

[6] = biological target: T1, phosphodiesterase 5 (PDE5) (Homo sapiens, UniProt O76074); assay: PDE5 in vitro enzyme assay (fluorescence polarization); assay type: biochemical; details: tadalafil positive control
T1 construct: purchased CalBiochem 524715
Method: PDE5 activity was measured with a PDE5 assay kit (cat#: R8039, Molecular Devices) according to manufacturer’s instructions. PDE5 enzyme was purchased from CalBiochem (cat#: 524715). Tadalafil (Cialis® was used as a positive control. Assays were performed in 96-well plates in duplicate, the fluorescence polarization was determined on a ViewLux microplate reader (Perkin Elmer) using the instrument settings recommended by the manufacturer. (DOC) Click here for additional data file.
PDE5 activity was quantified usinga PDE5 assay kit (cat#: R8039, Molecular Devices) according to manufacturer’s instructions. PDE5 enzyme was purchased from CalBiochem (cat#: 524715). The positive control, tadalafil (Cialis®), was synthesized in house. Assays were performed in 96-well plates in duplicate and fluorescence polarization was determined on a ViewLux microplate reader (Perkin Elmer) using the instrument settings recommended by the manufacturer.

[7] = Pharmacokinetics in the rat; assay type: in vivo; design: Dose normalized AUC in the rat: unit not given here
Method: as §2

[8] = test system: mVEGF; assay: HT1080 xenograft pharmacodynamic model, intratumor mVEGF; assay type: in vivo, mouse; details: 200 mg/kg, twice per day for 7 days, oral, mean +/- SD, n = 10
Method: as §1
(§3) At the end of experiments, the tumors were excised from mice and homogenized on ice using a Powergen homogenizer fitted with Omni-Tip disposable/reusable probes (both from Fisher Scientific) in Tris-HCl buffer containing a cocktail of proteinase inhibitors. Intra-tumor human VEGF levels, as well as levels of other growth factors or proteins, were subsequently measured using commercially available ELISA kits (R&D Systems). Protein concentrations of the homogenates were determined using the Bradford protein assay (Bio-Rad) and intratumor growth factor levels were normalized to the total protein concentration.
(§4) Among the VEGF UTR-selective compounds identified, PTC-858 is a potent hit with adequate pharmaceutical properties (data not shown). […]

[9] = test system: hFGF-2; assay: HT1080 xenograft pharmacodynamic model, intratumor hFGF-2; assay type: in vivo, mouse; details: twice per day for 7 days
Method: as §1, §3, §4

[10] = test system: G-CSF; assay: G-CSF ELISA in HT1080 cells under normoxia; assay type: cell-based; details: Homo sapiens, HT-1080; HT1080 cells under normoxia (21% oxygen), 48 hours
Method: Cells were treated with vehicle control (0.5% DMSO) or compounds at the indicated concentration for 48 hours, and specific proteins in conditioned medium were quantified using commercially available ELISA kits (R&D Systems) according to the manufacturer’s recommendations. VEGF was quantified in HeLa cells under hypoxia (1% oxygen); Tumor necrosis factor alpha (TNFα) was quantified in CEM cells stimulated with 1 μg/mL interleukin-1 beta (Sigma); erythropoietin (EPO) was quantified in HepB3 cells under hypoxic conditions (1% oxygen); and granulocyte colony-stimulating factor (G-CSF), basic fibroblast growth factor (FGF-2) and insulin-like growth factor 1 (IGF-1) were quantified without induction in HT1080 cells, HeLa cells and HepG2 cells, respectively.
Several target proteins were chosen as selectivity counter-screens, including TNF-alpha, FGF-2, G-CSF, IGF-1, and EPO. Similar to that of VEGF, the expression levels of these proteins are post-transcriptionally regulated, either through a 5’-UTR IRES, 3’-UTR AU-rich elements (AREs), or both.

[11] = test system: A375 human melanoma cells; assay: Chick embryo tumor growth study; assay type: in vivo; details: A375 on CAM, single intravenous injection 500 μg per embryo, excised 6 days after dose
Method: The chick embryo tumor growth assay was performed as described previously with some modifications. A375 human melanoma cells (5 x 10^6) log-phase growth in a total volume of 40 μL RPMI1640 medium were inoculated into the CAM of 10-day old chick embryos. After 24 h, the embryo received a single intravenous injection of 100 μL of compound (500 μg per embryo) or vehicle control (5% Cremaphor and 5% ethanol in PBS). The embryos were incubated for another 6 days, at which time the embryos were sacrificed. Tumors that formed at the primary site were excised, trimmed free of surrounding CAM tissue, and weighed.
To test the hypothesis that targeting VEGF post-transcriptionally can be a useful approach for the treatment of cancers, we initially evaluated the efficacy of the compounds in a chick embryo tumor growth model, known to be angiogenesis-dependent. Briefly, A375 human melanoma cells were seeded on the chorioallantoic membrane (CAM) of 10 day old chick embryos and, after 24 h, the embryo received a single intravenous injection of 100 μL of compound (500 μg per embryo) or vehicle control (5% Cremaphor and 5% ethanol in PBS). Tumors were grown for seven days, excised, and their wet weights were determined.
A375 human melanoma cells (5 x 10^6) were inoculated into the CAM of 10-days-old chick embryos. […]

Compound	overt toxicity (body weight loss) [1]	Microsome metabolism - rat, % loss @ 1 h [2] [%]	Acute Toxicity Dose (ATD) in mouse [3]	IC50 [4] [µM]	IC50 [5] [µM]	inhibition of PDE5 activity [6]	Dose normalized AUC in the rat [7]	bioavailability ([7]; in vivo, po, DMSO/PEG) [%]	intratumor mVEGF [8]	changes in FGF-2 in vivo ([9]; 200 mg/kg orally)	intratumor hFGF-2 ([9]; 200 mg/kg, oral, mean +/- SD, n = 10)	EC50 [10] [µM]	tumor size (wet weight) vs no-treatment or vehicle controls [11]
COc1ccc(C2c3[nH]c4ccc(Br)cc4c3CC3C(=O)N(C4CCCCC4)C(=S)N32)cc1.O=C(O)C(F)(F)F (stereo not shown) [PTC-510, 9-bromo-2-cyclohexyl-5-(4-methoxyphenyl)-3-thioxo-2,3,5,6,11,11a-hexahydro-1H-imidazo[1’,5’:1,6]pyrido[3,4-b]indol-1-one trifluoroacetate]	No overt toxicity	0	No overt toxicity at 1000 mg/kg	> 5	3.7	did not inhibit PDE5 activity	2.60	50	–	–	–	–	–
Brc1ccc2[nH]c3c(c2c1)CCCC3n1cccc1 (stereo not shown) [PTC-858, 6-bromo-1-(1H-pyrrol-1-yl)-2,3,4,9-tetrahydro-1H-carbazole]	–	–	–	–	–	–	–	–	12.6 ± 5.9 pg/mg total tumor proteins	not significant	3126.8 ± 1073.7 pg/mg total tumor proteins	> 30	significantly reduced tumor size
